Here are results for 29 compounds from patent US6969721B2, “Tricyclic-2-pyridone compounds useful as HIV reverse transcriptase inhibitors” (Bristol-Myers Squibb Pharma, priority 2000, dated 2005).

Each structure is given as a SMILES string.

A word on the melting point: it is the temperature of the solid-liquid transition. `CCCCC1(C(F)(F)F)c2cc(Cl)ccc2Nc2c1cc[nH]c2=O` (centres unmarked) [Example 18, 5-Butyl-7-chloro-5-trifluoromethyl-5,10-dihydrobenzo[b]-1,7-naphthyridin-1(2H)-one]: the melting point fell in the range of 245 to 248 °C.

Compound `O=c1[nH]ccc2c1Nc1ccc(Cl)cc1C2(Cc1ccccn1)C(F)(F)F` (centres unmarked) [Example 19, 7-Chloro-5-(2-pyridylmethyl)-5-trifluoromethyl-5,10-dihydrobenzo[b]-1,7-naphthyridin-1(2H)-one] had a melting point of 270 to 275 °C.

On to `O=c1[nH]ccc2c1Nc1ccc(Cl)cc1C2(CCC1CC1)C(F)(F)F` (centres unmarked) [Example 20, 7-Chloro-5-(2-cyclopropylethyl)-5-trifluoromethyl-5,10-dihydrobenzo[b]-1,7-naphthyridin-1(2H)-one], for which the melting point fell in the range of 220 to 222 °C.

In the case of `O=c1[nH]ccc2c1Nc1ccc(Cl)cc1C2(C#CC1CC1)C(F)(F)F` (centres unmarked) [Example 21, 7-Chloro-5-cyclopropylethynyl-5-trifluoromethyl-5,10-dihydrobenzo[b]-1,7-naphthyridin-1(2H)-one], the melting point is 247 to 250 °C.

The compound `O=c1[nH]ccc2c1Nc1ccc(Cl)cc1C2(CNC1CC1)C(F)(F)F` (centres unmarked) [Example 22, 7-Chloro-5-(N-cyclopropylaminomethyl)-5-trifluoromethyl-5,10-dihydrobenzo[b]-1,7-naphthyridin-1(2H)-one] displayed a melting point of 230 to 235 °C.

On to `O=c1[nH]ccc2c1Nc1ccc(Cl)cc1C2(CO)C(F)(F)F` (centres unmarked) [Example 23, 7-Chloro-5-hydroxymethyl-5-trifluoromethyl-5,10-dihydrobenzo[b]-1,7-naphthyridin-1(2H)-one], for which the melting point is 270 to 275 °C.

For the compound `CCCOCC1(C(F)(F)F)c2cc(Cl)ccc2Nc2c1cc[nH]c2=O` (centres unmarked) [Example 27, 7-Chloro-5-(n-propoxymethyl)-5-trifluoromethyl-5,10-dihydrobenzo[b]-1,7-naphthyridin-1(2H)-one], the melting point lay within 162 to 165 °C.

`CC(C)OCC1(C(F)(F)F)c2cc(Cl)ccc2Nc2c1cc[nH]c2=O` (centres unmarked) [Example 28, 7-Chloro-5-(i-propoxymethyl)-5-trifluoromethyl-5,10-dihydrobenzo[b]-1,7-naphthyridin-1(2H)-one] showed a melting point of 185 to 190 °C.

For `COCCC1(C(F)(F)F)c2cc(Cl)ccc2Nc2c1cc[nH]c2=O` (centres unmarked) [Example 29, 7-Chloro-5-(2-methoxyethyl)-5-trifluoromethyl-5,10-dihydrobenzo[b]-1,7-naphthyridin-1(2H)-one], the melting point lay within 268 to 271 °C.

The compound `CC(C)NCC1(C(F)(F)F)c2cc(Cl)ccc2Nc2c1cc[nH]c2=O` (centres unmarked) [Example 30, 7-Chloro-5-(i-propylaminomethyl)-5-trifluoromethyl-5,10-dihydrobenzo[b]-1,7-naphthyridin-1(2H)-one] yielded a melting point of 235 to 240 °C.

The compound `CC(C)N(C)CC1(C(F)(F)F)c2cc(Cl)ccc2Nc2c1cc[nH]c2=O` (centres unmarked) [Example 31, 7-Chloro-5-(N-methyl-N-i-propylaminomethyl)-5-trifluoromethyl-5,10-dihydrobenzo[b]-1,7-naphthyridin-1(2H)-one] displayed a melting point of 105 to 110 °C.

The compound `O=c1[nH]ccc2c1Nc1ccc(Cl)cc1C2(CNC1CC1)C(F)(F)F` (centres unmarked) [Example 32, 7-Chloro-5-(cyclopropylaminomethyl)-5-trifluoromethyl-5,10-dihydrobenzo[b]-1,7-naphthyridin-1(2H)-one] yielded a melting point of 242 to 245 °C.

The compound `CCCNCC1(C(F)(F)F)c2cc(Cl)ccc2Nc2c1cc[nH]c2=O` (centres unmarked) [Example 33, 7-Chloro-5-(n-propylaminomethyl)-5-trifluoromethyl-5,10-dihydrobenzo[b]-1,7-naphthyridin-1(2H)-one] gave a melting point of 243 to 245 °C.

The compound `O=c1[nH]ccc2c1Nc1ccc(Cl)cc1C2(CNC1CCC1)C(F)(F)F` (centres unmarked) [Example 34, 7-Chloro-5-(cyclobutylaminomethyl)-5-trifluoromethyl-5,10-dihydrobenzo[b]-1,7-naphthyridin-1(2H)-one] yielded a melting point of 250 to 254 °C.

Regarding `CC(C)CNCC1(C(F)(F)F)c2cc(Cl)ccc2Nc2c1cc[nH]c2=O` (centres unmarked) [Example 35, 7-Chloro-5-(i-butylaminomethyl)-5-trifluoromethyl-5,10-dihydrobenzo[b]-1,7-naphthyridin-1(2H)-one], the melting point fell in the range of 210 to 215 °C.

The compound `CC(C)OCC1(C(F)(F)F)c2cc(Cl)ccc2Nc2c1cc[nH]c2=O` (centres unmarked) [Example 36, 7-Chloro-5-(i-propoxymethyl)-5-trifluoromethyl-5,10-dihydrobenzo[b]-1,7-naphthyridin-1(2H)-one] gave a melting point of 195 to 197 °C.

On to `CC(C)SCC1(C(F)(F)F)c2cc(Cl)ccc2Nc2c1cc[nH]c2=O` (centres unmarked) [Example 44, 7-Chloro-5-(i-propylsulfanylmethyl)-5-trifluoromethyl-5,10-dihydrobenzo[b]-1,7-naphthyridin-1(2H)-one], for which the melting point is 220 to 221 °C.

In turn, `CC(C)SCC1(C(F)(F)F)c2cc(F)ccc2Nc2c1cc[nH]c2=O` (centres unmarked) [Example 45, 7-Fluoro-5-(i-propylsulfanylmethyl)-5-trifluoromethyl-5,10-dihydrobenzo[b]-1,7-naphthyridin-1(2H)-one] yielded a melting point of 215 to 216 °C.

`CC(C)(C)SCC1(C(F)(F)F)c2cc(Cl)ccc2Nc2c1cc[nH]c2=O` (centres unmarked) [Example 46, 7-Chloro-5-(t-butylsulfanylmethyl)-5-trifluoromethyl-5,10-dihydrobenzo[b]-1,7-naphthyridin-1(2H)-one] returned a melting point of 247 to 249 °C.

`CCCCC1(C)c2cc(Cl)ccc2Nc2c1cc[nH]c2=O` (centres unmarked) [Example 61a, 7-Chloro-5-(n-butyl)-5-methyl-5,10-dihydrobenzo[b]-1,7-naphthyridin-1(2H)-one] yielded a melting point of 177 to 179 °C.

`CCOCCC1(C(F)(F)F)c2cc(Cl)ccc2Nc2c1cc[nH]c2=O` (centres unmarked) [Example 62, 7-Chloro-5-(ethoxyethyl)-5-trifluoromethyl-5,10-dihydrobenzo[b]-1,7-naphthyridin-1(2H)-one] displayed a melting point of 240 to 245 °C.

With `CCCCC1(C#N)c2cc(Cl)ccc2Nc2c1cc[nH]c2=O` (centres unmarked) [Example 63, 7-Chloro-5-(n-butyl)-5-cyano-5,10-dihydrobenzo[b]-1,7-naphthyridin-1(2H)-one], the melting point lay in the range of 182 to 185 °C.

Take `CCCCC1(CO)c2cc(Cl)ccc2Nc2c1cc[nH]c2=O` (centres unmarked) [Example 64, 7-Chloro-5-(n-butyl)-5-(hydroxymethyl)-5,10-dihydrobenzo[b]-1,7-naphthyridin-1(2H)-one]: the melting point fell in the range of 260 to 265 °C.

Consider `CCCCC1(C(F)F)c2cc(Cl)ccc2Nc2c1cc[nH]c2=O` (centres unmarked) [Example 64a, 7-Chloro-5-(n-butyl)-5-difluoromethyl-5,10-dihydrobenzo[b]-1,7-naphthyridin-1(2H)-one], for which the melting point lay within 198 to 200 °C.

In the case of `CC(C)OCC1(C(F)F)c2cc(Cl)ccc2Nc2c1cc[nH]c2=O` (centres unmarked) [Example 64b, 7-Chloro-5-(i-propoxymethyl)-5-difluoromethyl-5,10-dihydrobenzo[b]-1,7-naphthyridin-1(2H)-one], the melting point fell in the range of 138 to 142 °C.

As for `CCCCC1(C(C)(F)F)c2cc(Cl)ccc2Nc2c1cc[nH]c2=O` (centres unmarked) [Example 65, 7-Chloro-5-(n-butyl)-5-(1,1-difluoroethyl)-5,10-dihydrobenzo[b]-1,7-naphthyridin-1(2H)-one], the melting point is 120 to 122 °C.

`CCCCC1(C(C)(F)F)c2cc(F)ccc2Nc2c1cc[nH]c2=O` (centres unmarked) [Example 66, 5-(n-Butyl)-5-(1,1-difluoroethyl)-7-Fluoro-5,10-dihydrobenzo[b]-1,7-naphthyridin-1(2H)-one] yielded a melting point of 267 to 270 °C.

`CCCCC1(C(C)(F)F)c2cc(C#N)ccc2Nc2c1cc[nH]c2=O` (centres unmarked) [Example 67, 7-Cyano-5-(n-butyl)-5-(1,1-difluoroethyl)-5,10-dihydrobenzo[b]-1,7-naphthyridin-1(2H)-one] returned a melting point of 132.2 to 134.7 °C.

On to `CCOCC1(C(C)(F)F)c2cc(Cl)ccc2Nc2c1cc[nH]c2=O` (centres unmarked) [Example 68, 7-Chloro-5-(ethoxymethyl)-5-(1,1-difluoroethyl)-5,10-dihydrobenzo[b]-1,7-naphthyridin-1(2H)-one], for which the melting point lay in the range of 265 to 267 °C.
